Results on 33 compounds are retold here after patent publication US20240076285A1, “COMPOUNDS AND COMPOSITIONS FOR TREATING CONDITIONS ASSOCIATED WITH STING ACTIVITY” (IFM Due, Inc., priority 2020, published 2024).

For the assay, the target named is T1, hSTING (Homo sapiens, UniProt Q86WV6, G230A/H232R/R293Q/R71H).
T1 construct: host or cells: THP1-Dual KO-IFNAR2 cells
Kind of assay: STING reporter assay in THP1-Dual KO-IFNAR2 cells (2'3'cGAMP stimulation, luciferase reporter). Format: cell-based. As to conditions: 15 μM 2'3'cGAMP, 24 h. The method, then:
STING pathway activation by the compounds described herein was measured using THP1-Dual™ cells (KO-IFNAR2).
THP1-Dual™ KO-IFNAR2 Cells (obtained from invivogen) were maintained in RPMI, 10% FCS, 5 ml P/S, 2 mM L-glut, 10 mM Hepes, and 1 mM sodium pyruvate. Compounds were spotted in empty 384 well tissue culture plates (Greiner 781182) by Echo for a final concentration of 0.0017-100 μM. Cells were plated into the TC plates at 40 μL per well, 2×10E6 cells/mL. For activation with STING ligand, 2′3′cGAMP (MW 718.38, obtained from Invivogen), was prepared in Optimem media.
The following solutions were prepared for each 1×384 plate: • Solution A: 2 mL Optimem with one of the following stimuli: • 60 μL of 10 mM 2′3′cGAMP→150 μM stock • Solution B: 2 mL Optimem with 60 μL Lipofectamine 2000→Incubate 5 min at RT
2 mL of solution A and 2 ml Solution B was mixed and incubated for 20 min at room temperature (RT). 20 μL of transfection solution (A+B) was added on top of the plated cells, with a final 2′3′cGAMP concentration of 15 μM. The plates were then centrifuged immediately at 340 g for 1 minute, after which they were incubated at 37° C., 5% CO2, >98% humidity for 24 h. Luciferase reporter activity was then measured. EC50 values were calculated by using standard methods known in the art.
Luciferase reporter assay: 10 μL of supernatant from the assay was transferred to white 384-plate with flat bottom and squared wells. One pouch of QUANTI-Luc™ Plus was dissolved in 25 mL of water. 100 μL of QLC Stabilizer per 25 mL of QUANTI-Luc™ Plus solution was added. 50 μL of QUANTI-Luc™ Plus/QLC solution per well was then added. Luminescence was measured on a Platereader (e.g., Spectramax I3X (Molecular Devices GF3637001)).
Luciferase reporter activity was then measured. EC50 values were calculated by using standard methods known in the art.
(In general: In a reporter assay the amount or activity of a reporter protein is the signal.)

T1 sequence (Q86WV6 whole entry R71H/G230A/H232R/R293Q): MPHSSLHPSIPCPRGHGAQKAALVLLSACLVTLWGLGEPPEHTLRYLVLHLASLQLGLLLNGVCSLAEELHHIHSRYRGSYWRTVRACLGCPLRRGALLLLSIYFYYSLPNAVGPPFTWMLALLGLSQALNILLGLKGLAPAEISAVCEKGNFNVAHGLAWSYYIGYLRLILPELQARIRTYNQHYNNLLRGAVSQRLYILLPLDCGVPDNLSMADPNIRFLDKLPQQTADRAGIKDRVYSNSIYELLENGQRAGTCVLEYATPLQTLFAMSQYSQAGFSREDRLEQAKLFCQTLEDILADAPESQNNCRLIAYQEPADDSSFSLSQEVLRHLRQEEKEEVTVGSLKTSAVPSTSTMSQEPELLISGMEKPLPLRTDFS

As usually defined, the EC50 is the concentration at which the effect is half-maximal. A higher EC50 goes with a need for much substance. In turn, `N#Cc1cc(Nc2ccc3c(c2)CC(=O)N3)cc(Nc2ccc3cc[nH]c3c2)n1` [Compound 101, 6-[(1H-indol-6-yl)amino]-4-[(2-oxo-2,3-dihydro-1H-indol-5-yl)amino]pyridine-2-carbonitrile] displayed an EC50 (class symbols) of 5 to 100 µM.
Regarding `Cc1ccc(Nc2cc(C#N)nc(Nc3ccc4cc[nH]c4c3)c2)cn1` [Compound 102, 6-[(1H-indol-6-yl)amino]-4-[(6-methylpyridin-3-yl)amino]pyridine-2-carbonitrile], under “numeric bound”, the EC50 is > 30 µM.
Same read-out and setting: to `COC1CCN(c2cc(C#N)nc(Nc3ccc4cc[nH]c4c3)c2)CC1` [Compound 103, 6-[(1H-indol-6-yl)amino]-4-(4-methoxypiperidin-1-yl)pyridine-2-carbonitrile] belongs > 30 µM.
Consider `N#Cc1cc(Nc2ccc(C(F)(F)F)c(F)c2)cc(Nc2ccc3cc[nH]c3c2)n1` [Compound 104, 4-{[3-fluoro-4-(trifluoromethyl)phenyl]amino}-6-[(1H-indol-6-yl)amino]pyridine-2-carbonitrile], for which the EC50 (class symbols) lay in the range of 0.2 to 1 µM.
`Cc1nc2ccc(Nc3cc(C#N)nc(Nc4ccc5cc[nH]c5c4)c3)cc2s1` [Compound 105, 6-[(1H-indol-6-yl)amino]-4-[(2-methyl-1,3-benzothiazol-6-yl)amino]pyridine-2-carbonitrile]: for the setting “class symbols”, the EC50 lay within 1 to 5 µM.
Consider `N#Cc1cc(N2CCC(F)(F)CC2)cc(Nc2ccc3cc[nH]c3c2)n1` [Compound 106, 4-(4,4-difluoropiperidin-1-yl)-6-[(1H-indol-6-yl)amino]pyridine-2-carbonitrile], for which the EC50 (numeric bound) is > 30 µM.
Regarding `Cc1nc2cc(Nc3cc(C#N)nc(Nc4ccc5cc[nH]c5c4)c3)ccc2s1` [Compound 107, 6-[(1H-indol-6-yl)amino]-4-[(2-methyl-1,3-benzothiazol-5-yl)amino]pyridine-2-carbonitrile], the EC50 (class symbols) was 1 to 5 µM.
`Cc1nn(C)c2ccc(Nc3cc(C#N)nc(Nc4ccc5cc[nH]c5c4)c3)cc12` [Compound 108, 4-[(1,3-dimethyl-1H-indazol-5-yl)amino]-6-[(1H-indol-6-yl)amino]pyridine-2-carbonitrile] displayed an EC50 (class symbols) of 1 to 5 µM.
In the case of `N#Cc1cc(Nc2cncc(Cl)c2)cc(Nc2ccc3cc[nH]c3c2)n1` [Compound 109, 4-[(5-chloropyridin-3-yl)amino]-6-[(1H-indol-6-yl)amino]pyridine-2-carbonitrile], the EC50 (class symbols) fell in the range of 1 to 5 µM.
With `N#Cc1cc(Nc2cc(F)cc(C(F)(F)F)c2)cc(Nc2ccc3cc[nH]c3c2)n1` [Compound 110, 4-{[3-fluoro-5-(trifluoromethyl)phenyl]amino} 6-[(1H-indol-6-yl)amino]pyridine-2-carbonitrile], the EC50 (class symbols) was in the range of 0.2 to 1 µM.
`CCc1ccc(Nc2cc(C#N)nc(Nc3ccc4cc[nH]c4c3)c2)cn1` [Compound 111, 4-[(6-ethylpyridin-3-yl)amino]-6-[(1H-indol-6-yl)amino]pyridine-2-carbonitrile] gave an EC50 (class symbols) of 1 to 5 µM.
Same read-out and setting: to `COc1cc(Cl)cc(Nc2cc(C#N)nc(Nc3ccc4cc[nH]c4c3)c2)c1` [Compound 112, 4-[(3-chloro-5-methoxyphenyl)amino]-6-[(1H-indol-6-yl)amino]pyridine-2-carbonitrile] belongs 0.2 to 1 µM; to `CC(C)CN1CCN(c2cc(C#N)nc(Nc3ccc4cc[nH]c4c3)c2)CC1` [Compound 113, 6-[(1H-indol-6-yl)amino]-4-[4-(2-methylpropyl)piperazin-1-yl]pyridine-2-carbonitrile], 1 to 5 µM.
In turn, `N#Cc1cc(N2CCOCC2)cc(Nc2ccc3cc[nH]c3c2)n1` [Compound 114, 6-[(1H-indol-6-yl)amino]-4-(morpholin-4-yl)pyridine-2-carbonitrile] registered an EC50 (class symbols) of 5 to 100 µM.
On to `CC(C)(C)c1cncc(Nc2cc(C#N)nc(Nc3ccc4cc[nH]c4c3)c2)c1` [Compound 115, 4-[(5-tert-butylpyridin-3-yl)amino]-6-[(1H-indol-6-yl)amino]pyridine-2-carbonitrile], for which the EC50 (class symbols) fell in the range of 1 to 5 µM.
In turn, `N#Cc1cc(Nc2ccc(F)c(F)c2)cc(Nc2ccc3cc[nH]c3c2)n1` [Compound 116, 4-[(3,4-difluorophenyl)amino]-6-[(1H-indol-6-yl)amino]pyridine-2-carbonitrile] had an EC50 (class symbols) of 0.2 to 1 µM.
`N#Cc1cc(Nc2ccc3c(c2)OC(F)(F)O3)cc(Nc2ccc3cc[nH]c3c2)n1` [Compound 117, 4-[(2,2-difluoro-2H-1,3-benzodioxol-5-yl)amino]-6-[(1H-indol-6-yl)amino]pyridine-2-carbonitrile] displayed an EC50 (class symbols) of 0.2 to 1 µM.
For the setting “class symbols”, `N#Cc1cc(N2CCC(C(F)(F)F)CC2)cc(Nc2ccc3cc[nH]c3c2)n1` [Compound 118, 6-[(1H-indol-6-yl)amino]-4-[4-(trifluoromethyl)piperidin-1-yl]pyridine-2-carbonitrile] came in with an EC50 of 1 to 5 µM.
`N#Cc1cc(N2CCC(Oc3ccccc3)CC2)cc(Nc2ccc3cc[nH]c3c2)n1` [Compound 119, 6-[(1H-indol-6-yl)amino]-4-(4-phenoxypiperidin-1-yl)pyridine-2-carbonitrile]: the EC50 (class symbols) lay in the range of 0.2 to 1 µM.
With `N#Cc1cc(N2CCN(CC(F)(F)F)CC2)cc(Nc2ccc3cc[nH]c3c2)n1` [Compound 120, 6-[(1H-indol-6-yl)amino]-4-[4-(2,2,2-trifluoroethyl)piperazin-1-yl]pyridine-2-carbonitrile], the EC50 (class symbols) is 5 to 100 µM.
`CN1CCN(c2cc(C#N)nc(Nc3ccc4cc[nH]c4c3)c2)CC1` [Compound 121, 6-((1H-indol-6-yl)amino)-4-(4-methylpiperazin-1-yl)picolinonitrile]: the EC50 (numeric bound) was > 30 µM.
Consider `CC1(C)C(=O)Nc2cc(Nc3cc(C#N)nc(Nc4ccc5cc[nH]c5c4)c3)ccc21` [Compound 122, 4-[(3,3-dimethyl-2-oxo-2,3-dihydro-1H-indol-6-yl)amino]-6-[(1H-indol-6-yl)amino]pyridine-2-carbonitrile], for which, under “class symbols”, the EC50 was in the range of 1 to 5 µM.
Regarding `N#Cc1cc(Nc2ccc3c(c2)C(=O)NC3)cc(Nc2ccc3cc[nH]c3c2)n1` [Compound 123, 6-[(1H-indol-6-yl)amino]-4-[(3-oxo-2,3-dihydro-1H-isoindol-5-yl)amino]pyridine-2-carbonitrile], for the setting “class symbols”, the EC50 is 5 to 100 µM.
Compound `CC(C)c1cncc(Nc2cc(C#N)nc(Nc3ccc4cc[nH]c4c3)c2)c1` [Compound 124, 6-[(1H-indol-6-yl)amino]-4-{[5-(propan-2-yl)pyridin-3-yl]amino}pyridine-2-carbonitrile] returned an EC50 (class symbols) of 0.2 to 1 µM.
The compound `N#Cc1cc(Nc2ccc(OC(F)(F)F)nc2)cc(Nc2ccc3cc[nH]c3c2)n1` [Compound 125, 6-[(1H-indol-6-yl)amino]-4-{[6-(trifluoromethoxy)pyridin-3-yl]amino}pyridine-2-carbonitrile] yielded a half-maximal effective concentration (EC50) (class symbols) of 0.2 to 1 µM.
As to `N#Cc1cc(Nc2ccc(OC(F)F)nc2)cc(Nc2ccc3cc[nH]c3c2)n1` [Compound 126, 4-{[6-(difluoromethoxy)pyridin-3-yl]amino}-6-[(1H-indol-6-yl)amino]pyridine-2-carbonitrile], the half-maximal effective concentration (EC50) (class symbols) was 0.2 to 1 µM.
The same measure, in the same setting: to `N#Cc1cc(Nc2ccc(OCC(F)(F)F)nc2)cc(Nc2ccc3cc[nH]c3c2)n1` [Compound 127, 6-[(1H-indol-6-yl)amino]-4-{[6-(2,2,2-trifluoroethoxy)pyridin-3-yl]amino}pyridine-2-carbonitrile] belongs 0.2 to 1 µM; to `COc1cc(Nc2cc(C#N)nc(Nc3ccc4cc[nH]c4c3)c2)cnc1Cl` [Compound 128, 4-[(6-chloro-5-methoxypyridin-3-yl)amino]-6-[(1H-indol-6-yl)amino]pyridine-2-carbonitrile], 1 to 5 µM; to `N#Cc1cc(Nc2cncc(F)c2)cc(Nc2ccc3cc[nH]c3c2)n1` [Compound 129, 4-[(5-fluoropyridin-3-yl)amino]-6-[(1H-indol-6-yl)amino]pyridine-2-carbonitrile], 1 to 5 µM.
Compound `N#Cc1cc(Nc2ccc(C(F)(F)F)nc2)cc(Nc2ccc3cc[nH]c3c2)n1` [Compound 130, 6-[(1H-indol-6-yl)amino]-4-{[6-(trifluoromethyl)pyridin-3-yl]amino}pyridine-2-carbonitrile] came in with an EC50 (class symbols) of 0.2 to 1 µM.
Consider `COc1ccc(Nc2cc(C#N)nc(Nc3ccc4cc[nH]c4c3)c2)cn1` [Compound 131, 6-[(1H-indol-6-yl)amino]-4-[(6-methoxypyridin-3-yl)amino]pyridine-2-carbonitrile], for which the EC50 (class symbols) fell in the range of 1 to 5 µM.
For `CNC(=O)c1ccc(Nc2cc(C#N)nc(Nc3ccc4cc[nH]c4c3)c2)cc1F` [Compound 132, 4-({2-cyano-6-[(1H-indol-6-yl)amino]pyridin-4-yl}amino)-2-fluoro-N-methylbenzamide], the EC50 (class symbols) lay within 5 to 100 µM.
`N#Cc1cc(Nc2ccc(C(F)(F)F)c(Cl)c2)cc(Nc2ccc3cc[nH]c3c2)n1` [Compound 133, 4-{[3-chloro-4-(trifluoromethyl)phenyl]amino}-6-[(1H-indol-6-yl)amino]pyridine-2-carbonitrile] returned an EC50 (class symbols) of 0.2 to 1 µM.
